# Measurements from patent US9580444B2, “Polycyclic pyrazolinone derivative and herbicide comprising same as effective component thereof” (priority 2013, dated 2017).
# Key:
# Format in all cases: in vivo
# [1] = tested on: Chenopodium album (common lambsquarters); assay: Test Example-2: herbicidal effect by a soil treatment before weeds are generated under upland field conditions; conditions: application amount 500 g a.i/ha, soil spray treatment before weeds are generated, about 21 days after the treatment, score 0 to 5
# Text: (§1) Using the formulation prepared according to the methods described above, the herbicidal effect of the bicyclic pyrazolinone derivative of the invention according to the methods shown in Test Examples below was examined. The herbicidal effect with respect to the test weeds or the phytotoxicity with respect to the test crops was examined according to the following criteria, and evaluated in six stage scores of 0 to 5. A vat having an area of 81 cm^2 and a depth of 3.5 cm was filled with upland soil, then, seeds of Amaranthus viridis (green amaranthus), Chenopodium album (common lambsquarters), and corn were seeded thereto, and the seeds were covered with soil of about 0.5 cm. Next day, a wettable powder or an emulsifiable concentrate of the compound of the present invention prepared according to Formulation Example was diluted, and a spray treatment was uniformly performed on the covered oil so as to be a predetermined dosage. The herbicidal effect with respect to the test weeds and the phytotoxicity with respect to corn about 21 days after the treatment were evaluated according to the evaluation criteria in six stages of 0 to 5 described above.
# [2] = tested on: Amaranthus viridis (green amaranthus); assay: as above; conditions: application amount 500 g a.i/ha, soil spray treatment before weeds are generated, about 21 days after the treatment, score 0 to 5
# Text: as §1
# corn [3] = assay: Test Example-2: phytotoxicity by a soil treatment before weeds are generated under upland field conditions; conditions: application amount 500 g a.i/ha, soil spray treatment before weeds are generated, about 21 days after the treatment, score 0 to 5
# Text: as §1
# [4] = tested on: other annual broad leaf weeds (Lindernia procumbens, Rotala indica, Elatine triandra); assay: Test Example-1: herbicidal effect by a treatment before weeds are generated under submerged conditions; conditions: 500 g a.i/ha, pre-emergence treatment, about 15 days after treatment, score 0-5
# In short: (§2)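 Pre-emergence, submerged paddy soil; WP/EC formulation diluted, applied to floodwater at seeding day at predetermined dose; visual herbicidal score 0–5 at ~15 days after treatment.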
# [5] = tested on: Eleocharis acicularis (needle spikerush); assay: as above; conditions: 500 g a.i/ha, pre-emergence treatment, about 15 days after treatment, score 0-5
# In short: as §2
# [6] = tested on: Echinochloa oryzicola (barnyard grass); assay: as above; conditions: 500 g a.i/ha, pre-emergence treatment, about 15 days after treatment, score 0-5
# In short: as §2
# [7] = tested on: Cyperus difformis (smallflower umbrella plant); assay: as above; conditions: 500 g a.i/ha, pre-emergence treatment, about 15 days after treatment, score 0-5
# In short: as §2
# [8] = tested on: Monochoria vaginalis (monochoria); assay: as above; conditions: 500 g a.i/ha, pre-emergence treatment, about 15 days after treatment, score 0-5
# In short: as §2
# [9] = tested on: Scirpus juncoides (bulrush); assay: as above; conditions: 500 g a.i/ha, pre-emergence treatment, about 15 days after treatment, score 0-5
# In short: as §2
# corn [10] = assay: Test Example-4: phytotoxicity by a foliage treatment after weeds are generated under upland field conditions; conditions: 500 g a.i/ha, foliage treatment after emergence, about 14 days after treatment, score 0-5
# In short: (§3)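 Upland soil; seeds covered ~0.5 cm, grown 14 d. Foliar spray of diluted WP or EC, predetermined dose, 4000 L water/ha. Herbicidal effect and corn phytotoxicity scored on a six-stage 0–5 scale ~14 d post-treatment.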
# [11] = tested on: Chenopodium album (common lambsquarters); assay: Test Example-4: herbicidal effect by a foliage treatment after weeds are generated under upland field conditions; conditions: 500 g a.i/ha, foliage treatment after emergence, about 14 days after treatment, score 0-5
# In short: as §3
# [12] = tested on: Abutilon theophrasti (velvetleaf); assay: as above; conditions: 500 g a.i/ha, foliage treatment after emergence, about 14 days after treatment, score 0-5
# In short: as §3
# [13] = tested on: Amaranthus viridis (green amaranthus); assay: as above; conditions: 500 g a.i/ha, foliage treatment after emergence, about 14 days after treatment, score 0-5
# In short: as §3
Structure (SMILES),Herbicidal effect Chenopodium album [1],Herbicidal effect Amaranthus viridis [2],Phytotoxicity Corn (corn [3]),Herbicidal effect Broadleaf weed [4],Herbicidal effect Eleocharis acicularis [5],Herbicidal effect Echinochloa oryzicola [6],Herbicidal effect Cyperus difformis [7],Herbicidal effect Monochoria vaginalis [8],Herbicidal effect Scirpus juncoides [9],Phytotoxicity Corn (corn [10]),Herbicidal effect Chenopodium album [11],Herbicidal effect Abutilon theophrast [12],Herbicidal effect Amaranthus viridis [13]
CC(C)Oc1cc(-c2c(Cl)n3n(c2=O)CCCC3)c(F)cc1Cl [Example 1-151],5 (Herbicidal effect/phytotoxicity was 90% or greater),5 (Herbicidal effect/phytotoxicity was 90% or greater),0 (Herbicidal effect/phytotoxicity was 0% to 10%),5 (Herbicidal effect/phytotoxicity was 90% or greater),5 (Herbicidal effect/phytotoxicity was 90% or greater),5 (Herbicidal effect/phytotoxicity was 90% or greater),5 (Herbicidal effect/phytotoxicity was 90% or greater),5 (Herbicidal effect/phytotoxicity was 90% or greater),5 (Herbicidal effect/phytotoxicity was 90% or greater),1 (Herbicidal effect/phytotoxicity was 10% to 30%),5 (Herbicidal effect/phytotoxicity was 90% or greater),5 (Herbicidal effect/phytotoxicity was 90% or greater),5 (Herbicidal effect/phytotoxicity was 90% or greater)
O=c1c(-c2cc(OC3CCCC3)c(Cl)cc2F)c(Cl)n2n1CCCC2 [Example 1-181],5 (Herbicidal effect/phytotoxicity was 90% or greater),5 (Herbicidal effect/phytotoxicity was 90% or greater),0 (Herbicidal effect/phytotoxicity was 0% to 10%),5 (Herbicidal effect/phytotoxicity was 90% or greater),5 (Herbicidal effect/phytotoxicity was 90% or greater),5 (Herbicidal effect/phytotoxicity was 90% or greater),5 (Herbicidal effect/phytotoxicity was 90% or greater),5 (Herbicidal effect/phytotoxicity was 90% or greater),5 (Herbicidal effect/phytotoxicity was 90% or greater),1 (Herbicidal effect/phytotoxicity was 10% to 30%),5 (Herbicidal effect/phytotoxicity was 90% or greater),5 (Herbicidal effect/phytotoxicity was 90% or greater),5 (Herbicidal effect/phytotoxicity was 90% or greater)
C=C(C)COc1cc(-c2c(Cl)n3n(c2=O)CCCC3)c(F)cc1Cl [Example 1-214],5 (Herbicidal effect/phytotoxicity was 90% or greater),5 (Herbicidal effect/phytotoxicity was 90% or greater),0 (Herbicidal effect/phytotoxicity was 0% to 10%),5 (Herbicidal effect/phytotoxicity was 90% or greater),5 (Herbicidal effect/phytotoxicity was 90% or greater),5 (Herbicidal effect/phytotoxicity was 90% or greater),5 (Herbicidal effect/phytotoxicity was 90% or greater),5 (Herbicidal effect/phytotoxicity was 90% or greater),5 (Herbicidal effect/phytotoxicity was 90% or greater),2 (Herbicidal effect/phytotoxicity was 30% to 50%),5 (Herbicidal effect/phytotoxicity was 90% or greater),5 (Herbicidal effect/phytotoxicity was 90% or greater),5 (Herbicidal effect/phytotoxicity was 90% or greater)
C#CC(C)Oc1cc(-c2c(Cl)n3n(c2=O)CCCC3)c(F)cc1Cl (centres unmarked) [Example 1-243],5 (Herbicidal effect/phytotoxicity was 90% or greater),5 (Herbicidal effect/phytotoxicity was 90% or greater),0 (Herbicidal effect/phytotoxicity was 0% to 10%),5 (Herbicidal effect/phytotoxicity was 90% or greater),5 (Herbicidal effect/phytotoxicity was 90% or greater),5 (Herbicidal effect/phytotoxicity was 90% or greater),5 (Herbicidal effect/phytotoxicity was 90% or greater),5 (Herbicidal effect/phytotoxicity was 90% or greater),5 (Herbicidal effect/phytotoxicity was 90% or greater),1 (Herbicidal effect/phytotoxicity was 10% to 30%),5 (Herbicidal effect/phytotoxicity was 90% or greater),5 (Herbicidal effect/phytotoxicity was 90% or greater),5 (Herbicidal effect/phytotoxicity was 90% or greater)
C#CC(C)Oc1cc(-c2c(Cl)n3n(c2=O)CCOCC3)c(F)cc1Cl (centres unmarked) [Example 1-245],5 (Herbicidal effect/phytotoxicity was 90% or greater),5 (Herbicidal effect/phytotoxicity was 90% or greater),0 (Herbicidal effect/phytotoxicity was 0% to 10%),5 (Herbicidal effect/phytotoxicity was 90% or greater),5 (Herbicidal effect/phytotoxicity was 90% or greater),5 (Herbicidal effect/phytotoxicity was 90% or greater),5 (Herbicidal effect/phytotoxicity was 90% or greater),5 (Herbicidal effect/phytotoxicity was 90% or greater),5 (Herbicidal effect/phytotoxicity was 90% or greater),1 (Herbicidal effect/phytotoxicity was 10% to 30%),5 (Herbicidal effect/phytotoxicity was 90% or greater),5 (Herbicidal effect/phytotoxicity was 90% or greater),5 (Herbicidal effect/phytotoxicity was 90% or greater)
COc1cc(-c2c(Cl)n3n(c2=O)CCCC3)c(Cl)cc1Cl [Example 1-292],5 (Herbicidal effect/phytotoxicity was 90% or greater),5 (Herbicidal effect/phytotoxicity was 90% or greater),2 (Herbicidal effect/phytotoxicity was 30% to 50%),5 (Herbicidal effect/phytotoxicity was 90% or greater),5 (Herbicidal effect/phytotoxicity was 90% or greater),5 (Herbicidal effect/phytotoxicity was 90% or greater),5 (Herbicidal effect/phytotoxicity was 90% or greater),5 (Herbicidal effect/phytotoxicity was 90% or greater),5 (Herbicidal effect/phytotoxicity was 90% or greater),1 (Herbicidal effect/phytotoxicity was 10% to 30%),5 (Herbicidal effect/phytotoxicity was 90% or greater),5 (Herbicidal effect/phytotoxicity was 90% or greater),5 (Herbicidal effect/phytotoxicity was 90% or greater)
O=c1c(-c2cc(NS(=O)(=O)C3CC3)c(Cl)cc2F)c(Cl)n2n1CCCC2 [Example 5-58],5 (Herbicidal effect/phytotoxicity was 90% or greater),5 (Herbicidal effect/phytotoxicity was 90% or greater),0 (Herbicidal effect/phytotoxicity was 0% to 10%),–,–,–,–,–,–,0 (Herbicidal effect/phytotoxicity was 0% to 10%),5 (Herbicidal effect/phytotoxicity was 90% or greater),5 (Herbicidal effect/phytotoxicity was 90% or greater),5 (Herbicidal effect/phytotoxicity was 90% or greater)
CS(=O)(=O)N(c1cc(-c2c(Cl)n3n(c2=O)CCCC3)c(F)cc1Cl)S(C)(=O)=O [Example 5-71],5 (Herbicidal effect/phytotoxicity was 90% or greater),5 (Herbicidal effect/phytotoxicity was 90% or greater),0 (Herbicidal effect/phytotoxicity was 0% to 10%),–,–,–,–,–,–,0 (Herbicidal effect/phytotoxicity was 0% to 10%),5 (Herbicidal effect/phytotoxicity was 90% or greater),5 (Herbicidal effect/phytotoxicity was 90% or greater),5 (Herbicidal effect/phytotoxicity was 90% or greater)
